# Measured values reported in ChEMBL document CHEMBL4402573, “Discovery and Optimization of α-Mangostin Derivatives as Novel PDE4 Inhibitors for the Treatment of Vascular Dementia” (J Med Chem, 2020).
# Calls of active or inactive are those of the source. No cut-off for these calls is given here.
# What was measured:
# [1] = target: 3',5'-cyclic-AMP phosphodiesterase 4B (Homo sapiens, UniProt Q07343); assay: Inhibition of human PDE4B1 (1 to 736 residues) expressed in Escherichia coli BL21 codon-plus cells using [3H]cAMP as substrate incubated for 15 mins by liquid scintillation counting method
# [2] = Inhibition of human PDE4D7 (1 to 748 residues) expressed in Escherichia coli BL21 codon-plus cells using [3H]cAMP as substrate incubated for 15 mins by liquid scintillation counting method
# [3] = target: Dual specificity calcium/calmodulin-dependent 3',5'-cyclic nucleotide phosphodiesterase 1B (Homo sapiens, UniProt Q01064); assay: Inhibition of human PDE1B (10 to 487 residues) expressed in Escherichia coli BL21 codon-plus cells using [3H]cAMP as substrate incubated for 15 mins by liquid scintillation counting method
# [4] = target: High affinity 3',5'-cyclic-AMP phosphodiesterase 7A (Homo sapiens, UniProt Q13946); assay: Inhibition of human PDE7A1 (130 to 482 residues) expressed in Escherichia coli BL21 codon-plus cells using [3H]cAMP as substrate incubated for 15 mins by liquid scintillation counting method
# [5] = species: Homo sapiens; assay: Selectivity index, ratio of IC50 for human PDE2A (580 to 919 residues) expressed in Escherichia coli BL21 codon-plus cells to IC50 for human PDE4D2 (86 to 413 residues) expressed in Escherichia coli BL21 codon-plus cells
# [6] = species: Homo sapiens; assay: Selectivity index, ratio of IC50 for human PDE3A (679 to 1087 residues) expressed in Escherichia coli BL21 codon-plus cells to IC50 for human PDE4D2 (86 to 413 residues) expressed in Escherichia coli BL21 codon-plus cells
# [7] = species: Homo sapiens; assay: Selectivity index, ratio of IC50 for human PDE5A1 (535 to 860 residues) expressed in Escherichia coli BL21 codon-plus cells to IC50 for human PDE4D2 (86 to 413 residues) expressed in Escherichia coli BL21 codon-plus cells
# [8] = AUC(0 to t) in Sprague-Dawley rat at 2.5 mg/kg, iv measured upto 24 hrs by LC-MS/MS analysis; type: ADME, organism-based; parameters: dose 2.5 mg/kg, time < 24 hr, route intravenous; conditions: in vivo
# [9] = Half life in Sprague-Dawley rat at 5 mg/kg, po measured upto 24 hrs by LC-MS/MS analysis; type: ADME, organism-based; conditions: in vivo
# [10] = AUC(0 to t) in Sprague-Dawley rat at 5 mg/kg, po measured upto 24 hrs by LC-MS/MS analysis; type: ADME, organism-based; parameters: dose 5 mg/kg, time < 24 hr, route oral; conditions: in vivo
# [11] = AUC(0 to infinity) in Sprague-Dawley rat at 5 mg/kg, po measured upto 24 hrs by LC-MS/MS analysis; type: ADME, organism-based; parameters: dose 5 mg/kg, time infinity, route oral; conditions: in vivo
# [12] = target: Cytochrome P450 2B6 (Homo sapiens, UniProt P20813); assay: Inhibition of human CYP2B6; type: ADME
# [13] = target: Cytochrome P450 2C9 (Homo sapiens, UniProt P11712); assay: Inhibition of human CYP2C9; type: ADME
# [14] = target: Cytochrome P450 2D6 (Homo sapiens, UniProt P10635); assay: Inhibition of human CYP2D6; type: ADME
# [15] = system: Mus musculus; assay: Anti-VaD activity against UCCAO-induced spatial memory deficient C57BL/6J mouse model assessed as improvement in spatial learning and memory by measuring increase in residence time on the platform at 10 mg/kg, po administered for 21 days by Morris water maze test; type: functional, organism-based
# [16] = system: Mus musculus; assay: Anti-VaD activity against UCCAO-induced spatial memory deficient C57BL/6J mouse model assessed as improvement in spatial learning and memory by measuring decrease in error time at 10 mg/kg, po administered for 21 days by passive avoidance test; type: functional, organism-based
# [17] = system: RAW264.7; assay: Antiinflammatory activity in mouse RAW264.7 assessed as reduction in LPS-induced NO production incubated for 24 hrs by Griess method; type: functional, cell-based
# Sequence of Cytochrome P450 2D6 (P10635 whole entry): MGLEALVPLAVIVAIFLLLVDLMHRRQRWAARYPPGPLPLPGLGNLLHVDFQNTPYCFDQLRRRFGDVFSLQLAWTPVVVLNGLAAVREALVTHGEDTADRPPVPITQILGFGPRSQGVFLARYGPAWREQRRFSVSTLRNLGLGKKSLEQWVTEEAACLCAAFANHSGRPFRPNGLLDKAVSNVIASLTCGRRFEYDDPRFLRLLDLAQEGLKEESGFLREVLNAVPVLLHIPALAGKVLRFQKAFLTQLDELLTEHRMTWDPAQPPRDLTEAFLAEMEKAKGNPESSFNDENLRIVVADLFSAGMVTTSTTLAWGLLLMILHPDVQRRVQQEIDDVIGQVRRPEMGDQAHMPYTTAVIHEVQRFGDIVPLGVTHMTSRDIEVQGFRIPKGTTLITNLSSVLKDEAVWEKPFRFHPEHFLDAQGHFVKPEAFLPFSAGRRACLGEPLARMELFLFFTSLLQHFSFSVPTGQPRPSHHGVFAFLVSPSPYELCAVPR
# Sequence of Cytochrome P450 2C9 (P11712 whole entry): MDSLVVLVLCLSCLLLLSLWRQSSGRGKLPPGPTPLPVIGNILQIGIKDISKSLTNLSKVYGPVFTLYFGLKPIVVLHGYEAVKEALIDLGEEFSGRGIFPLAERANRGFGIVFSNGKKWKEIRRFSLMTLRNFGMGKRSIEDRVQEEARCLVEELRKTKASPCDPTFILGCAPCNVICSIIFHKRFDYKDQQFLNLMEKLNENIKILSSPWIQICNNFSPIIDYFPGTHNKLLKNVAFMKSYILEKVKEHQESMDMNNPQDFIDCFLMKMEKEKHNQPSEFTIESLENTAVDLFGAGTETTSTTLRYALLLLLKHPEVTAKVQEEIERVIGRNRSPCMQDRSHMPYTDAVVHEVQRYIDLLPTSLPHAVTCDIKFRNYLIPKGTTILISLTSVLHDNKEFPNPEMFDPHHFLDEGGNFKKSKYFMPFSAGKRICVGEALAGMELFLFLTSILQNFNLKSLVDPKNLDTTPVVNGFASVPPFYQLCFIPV
# Sequence of Dual specificity calcium/calmodulin-dependent 3',5'-cyclic nucleotide phosphodiesterase 1B (Q01064 whole entry, the tested form may be a part): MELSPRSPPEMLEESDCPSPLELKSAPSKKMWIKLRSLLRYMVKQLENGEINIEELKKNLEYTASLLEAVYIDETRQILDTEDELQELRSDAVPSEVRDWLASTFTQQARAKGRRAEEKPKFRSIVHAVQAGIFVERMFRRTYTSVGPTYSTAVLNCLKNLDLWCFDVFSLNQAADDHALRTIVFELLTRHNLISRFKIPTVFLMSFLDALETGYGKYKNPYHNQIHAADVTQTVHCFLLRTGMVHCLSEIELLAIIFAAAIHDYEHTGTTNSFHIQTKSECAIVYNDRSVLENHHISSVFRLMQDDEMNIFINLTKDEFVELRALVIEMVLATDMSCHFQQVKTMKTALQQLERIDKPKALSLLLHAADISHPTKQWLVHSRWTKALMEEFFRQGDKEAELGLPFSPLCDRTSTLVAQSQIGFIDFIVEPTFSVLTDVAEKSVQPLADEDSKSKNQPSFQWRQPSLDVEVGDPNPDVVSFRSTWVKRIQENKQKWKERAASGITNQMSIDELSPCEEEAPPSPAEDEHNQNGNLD
# Sequence of High affinity 3',5'-cyclic-AMP phosphodiesterase 7A (Q13946 whole entry, the tested form may be a part): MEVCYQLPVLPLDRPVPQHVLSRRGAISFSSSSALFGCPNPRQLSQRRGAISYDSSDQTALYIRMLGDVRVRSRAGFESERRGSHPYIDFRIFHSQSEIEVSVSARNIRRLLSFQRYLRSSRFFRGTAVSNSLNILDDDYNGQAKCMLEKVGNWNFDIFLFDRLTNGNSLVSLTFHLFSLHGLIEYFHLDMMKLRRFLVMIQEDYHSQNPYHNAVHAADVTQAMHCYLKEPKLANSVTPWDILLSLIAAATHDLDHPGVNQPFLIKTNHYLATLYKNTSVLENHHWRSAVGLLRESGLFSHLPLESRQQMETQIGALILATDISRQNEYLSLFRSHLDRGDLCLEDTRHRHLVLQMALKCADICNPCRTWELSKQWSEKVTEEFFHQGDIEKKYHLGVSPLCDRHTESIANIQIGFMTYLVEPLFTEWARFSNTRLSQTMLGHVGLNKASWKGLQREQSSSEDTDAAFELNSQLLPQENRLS
# Sequence of 3',5'-cyclic-AMP phosphodiesterase 4B (Q07343 whole entry, the tested form may be a part): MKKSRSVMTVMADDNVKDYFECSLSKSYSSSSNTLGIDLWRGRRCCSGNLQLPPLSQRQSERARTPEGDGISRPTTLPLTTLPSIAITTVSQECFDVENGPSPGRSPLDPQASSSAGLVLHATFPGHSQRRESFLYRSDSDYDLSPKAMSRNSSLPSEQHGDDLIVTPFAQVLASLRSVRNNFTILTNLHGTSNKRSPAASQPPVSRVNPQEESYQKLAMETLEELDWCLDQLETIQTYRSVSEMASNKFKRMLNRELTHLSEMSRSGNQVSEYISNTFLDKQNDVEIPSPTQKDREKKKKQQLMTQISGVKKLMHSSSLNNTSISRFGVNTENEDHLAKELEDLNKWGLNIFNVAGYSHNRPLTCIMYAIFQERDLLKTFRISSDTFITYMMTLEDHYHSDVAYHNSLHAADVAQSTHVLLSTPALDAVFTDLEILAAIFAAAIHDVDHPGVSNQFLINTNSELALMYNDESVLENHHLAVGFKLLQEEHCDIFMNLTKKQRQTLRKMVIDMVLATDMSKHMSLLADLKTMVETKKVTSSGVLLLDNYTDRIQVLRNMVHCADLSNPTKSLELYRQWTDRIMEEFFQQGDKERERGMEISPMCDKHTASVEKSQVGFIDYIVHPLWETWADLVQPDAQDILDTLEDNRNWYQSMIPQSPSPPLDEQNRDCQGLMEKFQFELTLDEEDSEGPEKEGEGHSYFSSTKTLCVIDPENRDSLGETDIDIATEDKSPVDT
# Sequence of Cytochrome P450 2B6 (P20813 whole entry): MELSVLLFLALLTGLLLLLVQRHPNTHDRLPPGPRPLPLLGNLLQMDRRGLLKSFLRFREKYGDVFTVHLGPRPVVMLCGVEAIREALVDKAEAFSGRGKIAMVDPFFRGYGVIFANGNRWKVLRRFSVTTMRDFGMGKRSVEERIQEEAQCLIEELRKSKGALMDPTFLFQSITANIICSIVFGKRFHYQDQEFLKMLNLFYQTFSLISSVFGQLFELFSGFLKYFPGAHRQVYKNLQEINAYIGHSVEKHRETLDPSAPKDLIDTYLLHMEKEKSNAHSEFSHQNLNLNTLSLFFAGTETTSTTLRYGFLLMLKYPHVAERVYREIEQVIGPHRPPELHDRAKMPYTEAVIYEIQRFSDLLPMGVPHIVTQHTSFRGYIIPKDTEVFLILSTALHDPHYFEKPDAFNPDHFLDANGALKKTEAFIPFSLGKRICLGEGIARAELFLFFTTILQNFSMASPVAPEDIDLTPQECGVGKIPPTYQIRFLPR
smiles,measurement,setting,value
COc1c(OCCCCCCC(=O)O)cc2oc3cc4c(c(O)c3c(=O)c2c1CC=C(C)C)C=CC(C)(C)O4,IC50,[1],0.008 µM
same,IC50,[2],0.009 µM
same,IC50,[3],> 10 µM
same,IC50,[4],0.62 µM
same,Ratio IC50,[5],> 580
same,Ratio IC50,[6],> 580
same,Ratio IC50,[7],199
same,AUC(0-t) at 24 h,[8],6.67 µg·h/mL
same,half-life,[9],3.48 h
same,AUC(0-t) at 24 h,[10],4.74 µg·h/mL
same,AUC(0-inf),[11],4.79 µg·h/mL
same,IC50,[12],> 10 µM
same,IC50,[13],> 10 µM
same,IC50,[14],> 10 µM
same,Activity,[15],Active
same,Activity,[16],Active
same,Activity,[17],Dose-dependent effect
